Data taken from US20130143929A1, “FUNGICIDAL IMIDAZOLES” (EI DU PONT DE NEMOURS AND COMPANY, priority 2010, published 2013).
Marks after values point to notes of the source that are not given here.

Columns and labels:
Type in all cases: in vivo
[1] = test system: Puccinia recondite f. sp. tritici (the causal agent of wheat leaf rust); assay: Test A: wheat leaf rust, preventive spray on wheat seedlings, visual disease rating; settings: for Test A rating (100 = 100% disease control, 0 = no disease control relative to the controls): wheat leaf rust, preventive spray on wheat seedlings; for Test A rating (% disease control, wheat leaf rust): 100 = 100% disease control
How it was run: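 This was a preventive test: Puccinia recondite f. sp. tritici inoculum was applied one day after compound spray to run-off. Test suspensions were made in 50/50 acetone/water with 250 ppm surfactant, at 200 ppm (800 g/ha equivalent) or 40 ppm. Visual ratings of % disease control relative to controls were made after 24 h of saturated humidity and 7 growth-chamber days, all at 20° C.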

[2] = test system: Blumeria graminis f. sp. tritici (also known as Erysiphe graminis f. sp. tritici, the causal agent of wheat powdery mildew); assay: Test D: wheat powdery mildew, preventive spray on wheat seedlings, visual disease rating; settings: for Test D rating (100 = 100% disease control, 0 = no disease control relative to the controls): wheat powdery mildew, preventive spray on wheat seedlings; for Test D rating (% disease control, wheat powdery mildew): no asterisk: standard test suspension concentration, 100 = 100% disease control, 0 = no control relative to controls
How it was run: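 Preventive test: seedlings sprayed to run-off and inoculated with powdery mildew spores one day later. Suspensions were made in 50/50 acetone/water with 250 ppm Trem 014 surfactant (200 ppm equals 800 g/ha). Visual ratings after 8 days at 20 °C give percent disease control versus controls.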

[3] = test system: Septoria tritici (the causal agent of wheat leaf blotch); assay: Test B: wheat leaf blotch, preventive spray on wheat seedlings, visual disease rating; settings: for Test B rating (100 = 100% disease control, 0 = no disease control relative to the controls): wheat leaf blotch, preventive spray on wheat seedlings; for Test B rating (% disease control, wheat leaf blotch): 100 = 100% disease control
How it was run: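 Preventive test: Septoria tritici spores applied one day after run-off spraying of seedlings (200 ppm equals 800 g/ha; some tests 40 ppm). After 48 h at 24 °C saturated atmosphere and 19 days at 20 °C, disease scored visually as % control relative to untreated plants.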

[4] = test system: Botrytis cinerea (the causal agent of tomato Botrytis); assay: Test C: tomato Botrytis, preventive spray on tomato seedlings, visual disease rating; settings: for Test C rating (100 = 100% disease control, 0 = no disease control relative to the controls): tomato Botrytis, preventive spray on tomato seedlings; for Test C rating (% disease control, tomato Botrytis): 100 = 100% disease control
How it was run: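 Preventive test: B. cinerea spore inoculation one day after tomato seedlings were sprayed to run-off with compound suspended in 50/50 acetone–water plus 250 ppm surfactant. Plants held 48 h at 20° C in saturated air, then 3 days at 24° C; visual ratings scored 100 (full control) to 0 versus controls; some entries used 40 ppm.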

[5] = asterisk: 40 ppm test suspension
[6] = no asterisk: standard test suspension concentration, 0 = no control relative to controls
[7] = no asterisk (standard test suspension concentration, not 40 ppm)
[8] = asterisk: 40 ppm test suspension, 0 = no control

Structure (SMILES)	Test A rating (100 = 100% disease control, 0 = no disease control relative to the controls) [1, 5]	Test D rating (100 = 100% disease control, 0 = no disease control relative to the controls) [2, 5]	Test B rating (100 = 100% disease control, 0 = no disease control relative to the controls) [3, 5]	Test C rating (100 = 100% disease control, 0 = no disease control relative to the controls) [4, 5]	other results
Cc1ncc(C(O)c2ccc(F)cc2F)n1-c1c(F)cc(Cl)cc1F (stereo not drawn) [compound 122]	98* %	0* %	100* %	0* %	
Cc1cc(F)ccc1C(O)c1c(Br)nc(C)n1-c1ccc(F)cc1Cl (stereo not drawn) [compound 397]					Test A rating (% disease control, wheat leaf rust) [1, 6]: 100%; Test D rating (% disease control, wheat powdery mildew) [2]: 73%; Test B rating (% disease control, wheat leaf blotch) [3, 6]: 100%; Test C rating (% disease control, tomato Botrytis) [4, 6]: 100%
Cc1nc(Br)c(C(O)c2ccc(Cl)cc2)n1-c1ccc(F)cc1Cl (stereo not drawn) [compound 60]					Test A rating (100 = 100% disease control, 0 = no disease control relative to the controls) [1, 7]: 100%; Test D rating (100 = 100% disease control, 0 = no disease control relative to the controls) [2, 7]: 73%; Test B rating (100 = 100% disease control, 0 = no disease control relative to the controls) [3, 7]: 100%; Test C rating (100 = 100% disease control, 0 = no disease control relative to the controls) [4, 7]: 99%
Cc1cccc(F)c1-n1c(C)nc(Br)c1C(O)c1ccc(F)cc1F (stereo not drawn) [compound 341]	94* %	43* %	100* %	86* %	
Cc1ccc(C(O)c2c(Br)nc(C)n2-c2c(F)cccc2F)c(C)c1 (stereo not drawn) [compound 145]	100* %	98* %	100* %	51* %	
Cc1cccc(Br)c1-n1c(C)nc(Cl)c1C(O)c1ccc(F)cc1Cl (stereo not drawn) [compound 336]	97* %	90* %	89* %	72* %	
Cc1cccc(F)c1-n1c(C)nc(Cl)c1C(O)c1ccc(F)cc1F (stereo not drawn) [compound 339]	98* %	76* %	98* %	86* %	
COc1ccc(C(O)c2cnc(C)n2-c2ccc(F)cc2F)c(Cl)c1 (racemic) [compound 282]	92* %	0* %	63* %	0* %	
Cc1nc(Br)c(C(O)c2c(F)cc(F)cc2F)n1-c1ccc(Cl)cc1 (stereo not drawn) [compound 353]					Test A rating (100 = 100% disease control, 0 = no disease control relative to the controls) [1, 7]: 9%; Test D rating (100 = 100% disease control, 0 = no disease control relative to the controls) [2, 7]: 0%; Test B rating (100 = 100% disease control, 0 = no disease control relative to the controls) [3, 7]: 44%; Test C rating (100 = 100% disease control, 0 = no disease control relative to the controls) [4, 7]: 28%
Cc1cc(F)ccc1C(O)c1c(Cl)nc(C)n1-c1c(F)cccc1F (stereo not drawn) [compound 91]					Test A rating (100 = 100% disease control, 0 = no disease control relative to the controls) [1, 7]: 100%; Test D rating (100 = 100% disease control, 0 = no disease control relative to the controls) [2, 7]: 94%; Test B rating (100 = 100% disease control, 0 = no disease control relative to the controls) [3, 7]: 100%; Test C rating (100 = 100% disease control, 0 = no disease control relative to the controls) [4, 7]: 98%
Cc1cc(F)ccc1C(O)c1c(Cl)nc(C)n1-c1ccc(F)cc1Cl (stereo not drawn) [compound 398]					Test A rating (% disease control, wheat leaf rust) [1, 6]: 100%; Test D rating (% disease control, wheat powdery mildew) [2]: 0%; Test B rating (% disease control, wheat leaf blotch) [3, 6]: 100%; Test C rating (% disease control, tomato Botrytis) [4, 6]: 46%
COc1ccc(C(O)c2c(Cl)nc(Br)n2-c2ccc(F)cc2Cl)c(Cl)c1 (stereo not drawn) [compound 357]	100* %	98* %	100* %	99* %	
COc1cc(F)c(C(O)c2c(Br)nc(C)n2-c2ccc(F)cc2F)c(F)c1 (racemic) [compound 258]					Test A rating (100 = 100% disease control, 0 = no disease control relative to the controls) [1, 7]: 100%; Test D rating (100 = 100% disease control, 0 = no disease control relative to the controls) [2, 7]: 0%; Test B rating (100 = 100% disease control, 0 = no disease control relative to the controls) [3, 7]: 95%; Test C rating (100 = 100% disease control, 0 = no disease control relative to the controls) [4, 7]: 79%
Cc1nc(Br)c(C(O)c2ccc(C#N)cc2F)n1-c1c(F)cccc1F (stereo not drawn) [compound 199]	0* %	0* %	62* %	0* %	
Cc1nc(Cl)c(C(O)c2ccc(F)cc2Cl)n1-c1c(F)cc(C#N)cc1F (stereo not drawn) [compound 198]	97* %	0* %	100* %	0* %	
COc1cc(F)c(-n2c(C)nc(Cl)c2C(O)c2ccc(F)cc2C)c(F)c1 (stereo not drawn) [compound 183]	86* %	0* %	100* %	8* %	
Cc1cccc(F)c1-n1c(C)nc(Br)c1C(O)c1ccc(F)cc1Cl (stereo not drawn) [compound 342]	94* %	64* %	100* %	98* %	
Cc1nc(Br)c(C(O)c2ccc(F)cc2Br)n1-c1c(F)cccc1Cl (stereo not drawn) [compound 387]					Test A rating (% disease control, wheat leaf rust) [1, 8]: 100* %; Test D rating (% disease control, wheat powdery mildew) [2]: 90%; Test B rating (% disease control, wheat leaf blotch) [3, 8]: 100* %; Test C rating (% disease control, tomato Botrytis) [4, 8]: 99* %
Cc1cc(F)ccc1C(O)c1c(C)nc(Cl)n1-c1c(F)cc(F)cc1Cl (racemic) [compound 13]			100* %		Test A rating (100 = 100% disease control, 0 = no disease control relative to the controls) [1, 7]: 100%; Test D rating (100 = 100% disease control, 0 = no disease control relative to the controls) [2, 7]: 100%; Test C rating (100 = 100% disease control, 0 = no disease control relative to the controls) [4, 7]: 99%
Cc1nc(Cl)c(C(O)c2ccc(Cl)cc2Cl)n1-c1c(F)cc(F)cc1Cl (stereo not drawn) [compound 66]	100* %	69* %	100* %	99* %	
COc1ccc(-n2c(C(O)c3ccc(F)cc3Cl)cnc2C)c(OC)c1 (stereo not drawn) [compound 214]	0* %	0* %	0* %	0* %	
